Data from the supplement of paper PMC9013687.
± gives the standard deviation of the averaged measurements.

Experiments:
Danio rerio embryo [1] = assay: EC20 Eye-jaw distance_Decrease; higher = less potent; settings: exposure time: 4 dpf
Method: (§1)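 Zebrafish embryos (UFZ-OBI strain) were exposed from 2 hpf for 48 h (2 dpf) or 96 h (4 dpf) at 28 °C; spontaneous tail coiling was scored at 25 hpf. Morphological features from automated image analysis (FishInspector), heart rate and locomotor response were fitted with drc models. Quantal endpoints were dichotomised at 2.5 SD from controls and fitted with a log-logistic model; heart rate, pigmentation and STC were normalised to the replicate control mean. Betamethasone was tested as betamethasone dipropionate, diflorasone as diflorasone diacetate.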

Danio rerio embryo [2] = assay: EC20 Curvature_Increase; higher = less potent
Method: as §1

Danio rerio embryo [3] = assay: EC20 LMR dark; higher = less potent; settings: exposure time: 4 dpf
Method: as §1

Danio rerio embryo [4] = assay: EC50 Body length_Decrease
Method: as §1

Danio rerio embryo [5] = assay: EC20 Any effect; higher = less potent
Method: as §1

Danio rerio embryo [6] = assay: EC10 Body length_Decrease; higher = less potent
Method: as §1

Danio rerio embryo [7] = assay: EC20 Otolith-eye distance_Decrease; higher = less potent; settings: exposure time: 4 dpf
Method: as §1

Danio rerio embryo [8] = assay: EC10 Yolk sac size_Increase; higher = less potent
Method: as §1

Danio rerio embryo [9] = system: Danio rerio embryo
Method: as §1

Danio rerio embryo [10] = assay: EC10 Curvature_Increase; higher = less potent
Method: as §1

Danio rerio embryo [11] = assay: EC10 Any effect; higher = less potent
Method: as §1

Danio rerio embryo [12] = assay: EC10 Bladder size_Decrease; higher = less potent; settings: exposure time: 4 dpf
Method: as §1

Danio rerio embryo [13] = assay: EC10 Pericard size_Increase; higher = less potent
Method: as §1

Danio rerio embryo [14] = assay: EC10 Otolith-eye distance_Decrease; higher = less potent; settings: exposure time: 4 dpf
Method: as §1

Danio rerio embryo [15] = assay: EC50 Eye-jaw distance_Decrease; settings: exposure time: 4 dpf
Method: as §1

Danio rerio embryo [16] = assay: EC10 LMR dark; higher = less potent; settings: exposure time: 4 dpf
Method: as §1

Danio rerio embryo [17] = assay: EC20 Yolk sac size_Increase; higher = less potent
Method: as §1

Danio rerio embryo [18] = assay: EC50 Yolk sac size_Increase
Method: as §1

Danio rerio embryo [19] = settings: exposure time: 4 dpf
Method: as §1

Danio rerio embryo [20] = assay: EC20 Bladder size_Decrease; higher = less potent; settings: exposure time: 4 dpf
Method: as §1

Danio rerio embryo [21] = assay: EC50 Otolith-eye distance_Decrease; settings: exposure time: 4 dpf
Method: as §1

Danio rerio embryo [22] = assay: EC50 Bladder size_Decrease; settings: exposure time: 4 dpf
Method: as §1

Danio rerio embryo [23] = assay: spontaneous tail coiling frequency (coils/min/embryo); higher = more spontaneous movement; settings: 25 hpf
Method: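 Spontaneous tail coilings of zebrafish embryos exposed from 2 hpf were recorded at 24-25 hpf in 1-min videos and detected by a KNIME workflow from grey-value variance. Betamethasone was tested as the dipropionate, diflorasone as the diacetate.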

Danio rerio embryo [24] = assay: EC20 Pericard size_Increase; higher = less potent
Method: as §1

Danio rerio embryo [25] = assay: EC10 Eye-jaw distance_Decrease; higher = less potent; settings: exposure time: 4 dpf
Method: as §1

Danio rerio embryo [26] = assay: EC50 Pericard size_Increase
Method: as §1

Danio rerio embryo [27] = assay: EC20 Body length_Decrease; higher = less potent
Method: as §1

Danio rerio embryo [28] = assay: EC50 Curvature_Increase
Method: as §1

`CCCCC(O)(Cn1cncn1)c1ccc(Cl)cc1Cl` (stereo not given) [Hexaconazole] was tested, and the “EC20 Eye-jaw distance Decrease” value (Danio rerio embryo [1]) was 10.5 µM, the “EC20 Curvature Increase” value (Danio rerio embryo [2]; exposure time: 2 dpf) was 18.8 µM and the “EC20 Curvature Increase” value (Danio rerio embryo [2]; exposure time: 4 dpf) was 13.7 µM. For the same compound, the “EC20 LMR dark” value (Danio rerio embryo [3]) was 3.68 µM, the “EC50 Body length Decrease” value (Danio rerio embryo [4]; exposure time: 2 dpf) was 33.4 µM and the “EC50 Body length Decrease” value (Danio rerio embryo [4]; exposure time: 4 dpf) was 16.8 µM. For the same compound, the “EC20 Any effect” value (Danio rerio embryo [5]; exposure time: 2 dpf) was 15.7 µM, the “EC20 Any effect” value (Danio rerio embryo [5]; exposure time: 4 dpf) was 9.17 µM and the “EC10 Body length Decrease” value (Danio rerio embryo [6]; exposure time: 2 dpf) was 19.2 µM. The “EC10 Body length Decrease” value (Danio rerio embryo [6]; exposure time: 4 dpf) was 12.2 µM, the “EC20 Otolith-eye distance Decrease” value (Danio rerio embryo [7]) was 19.7 µM and the “EC10 Yolk sac size Increase” value (Danio rerio embryo [8]; exposure time: 2 dpf) was 45 µM. The “EC10 Yolk sac size Increase” value (Danio rerio embryo [8]; exposure time: 4 dpf) was 5.45 µM, the “EC50 Any effect” value (Danio rerio embryo [9]; exposure time: 2 dpf) was 19.5 µM and the “EC50 Any effect” value (Danio rerio embryo [9]; exposure time: 4 dpf) was 10.8 µM. For the same compound, the “EC50 STC bell shape” value (Danio rerio embryo [9]; exposure time: 25 h) was 23.4 µM, the “EC10 Curvature Increase” value (Danio rerio embryo [10]; exposure time: 2 dpf) was 17.5 µM and the “EC10 Curvature Increase” value (Danio rerio embryo [10]; exposure time: 4 dpf) was 11.8 µM. The “EC10 Any effect” value (Danio rerio embryo [11]; exposure time: 2 dpf) was 13.8 µM, the “EC10 Any effect” value (Danio rerio embryo [11]; exposure time: 4 dpf) was 8.34 µM and the “EC10 Bladder size Decrease” value (Danio rerio embryo [12]) was 6.28 µM. For the same compound, the “EC10 Pericard size Increase” value (Danio rerio embryo [13]; exposure time: 2 dpf) was 12.8 µM, the “EC10 Pericard size Increase” value (Danio rerio embryo [13]; exposure time: 4 dpf) was 15.2 µM and the “EC10 Otolith-eye distance Decrease” value (Danio rerio embryo [14]) was 19.6 µM. For the same compound, the “EC50 Eye-jaw distance Decrease” value (Danio rerio embryo [15]) was 13.1 µM, the “EC10 LMR dark” value (Danio rerio embryo [16]) was 3.21 µM and the “EC20 Yolk sac size Increase” value (Danio rerio embryo [17]; exposure time: 2 dpf) was 47.2 µM. For the same compound, the “EC20 Yolk sac size Increase” value (Danio rerio embryo [17]; exposure time: 4 dpf) was 6.81 µM, the “EC50 Yolk sac size Increase” value (Danio rerio embryo [18]; exposure time: 2 dpf) was 51.2 µM and the “EC50 Yolk sac size Increase” value (Danio rerio embryo [18]; exposure time: 4 dpf) was 9.95 µM. For the same compound, the “EC50 LMR dark” value (Danio rerio embryo [19]) was 4.83 µM, the “EC20 Bladder size Decrease” value (Danio rerio embryo [20]) was 7.52 µM and the “EC50 Otolith-eye distance Decrease” value (Danio rerio embryo [21]) was 19.8 µM. For the same compound, the “EC50 Bladder size Decrease” value (Danio rerio embryo [22]) was 10.3 µM, the “spontaneous tail coiling frequency” value (Danio rerio embryo [23]; 5 µM) was 10.3 and the “spontaneous tail coiling frequency” value (Danio rerio embryo [23]; 9.9 µM) was 9.83 ± 1.7. For the same compound, the “spontaneous tail coiling frequency” value (Danio rerio embryo [23]; 13.3 µM) was 9.46 ± 0.4, the “spontaneous tail coiling frequency” value (Danio rerio embryo [23]; 19.9 µM) was 9.25 ± 2.5 and the “spontaneous tail coiling frequency” value (Danio rerio embryo [23]; 26.5 µM) was 1.62 ± 0.91. For the same compound, the “spontaneous tail coiling frequency” value (Danio rerio embryo [23]; 53 µM) was 0, the “spontaneous tail coiling frequency” value (Danio rerio embryo [23]; 79.6 µM) was 0 and the “EC20 Pericard size Increase” value (Danio rerio embryo [24]; exposure time: 2 dpf) was 17.9 µM. For the same compound, the “EC20 Pericard size Increase” value (Danio rerio embryo [24]; exposure time: 4 dpf) was 16.9 µM, the “EC10 Eye-jaw distance Decrease” value (Danio rerio embryo [25]) was 9.21 µM and the “EC50 Pericard size Increase” value (Danio rerio embryo [26]; exposure time: 2 dpf) was 31.5 µM. The “EC50 Pericard size Increase” value (Danio rerio embryo [26]; exposure time: 4 dpf) was 20.4 µM, the “EC20 Body length Decrease” value (Danio rerio embryo [27]; exposure time: 2 dpf) was 23.5 µM and the “EC20 Body length Decrease” value (Danio rerio embryo [27]; exposure time: 4 dpf) was 13.7 µM. For the same compound, the “EC50 Curvature Increase” value (Danio rerio embryo [28]; exposure time: 2 dpf) was 21.2 µM and the “EC50 Curvature Increase” value (Danio rerio embryo [28]; exposure time: 4 dpf) was 17.5 µM.
